Assays:
[1] = system: L5B corticocollicular neurons; experiment: Slice electrophysiology, intrinsic properties of L5B corticocollicular neurons; format: cell-based, mouse; settings: 10 min incubation in 10 μM cpd5
Description: Stereotaxic injections for electrophysiology. Male or female ICR mice P21-30 (Jackson Laboratory) were anesthetized with 3% isoflurane (1.5% maintenance) and placed on the stereotaxic frame (Kopf). Core body temperature was maintained at ˜37° C. with a heating pad and eyes were protected with ophthalmic ointment. Lidocaine (1%) was injected under the scalp and an incision was made into the skin at the midline to expose the skull. […] A volume of ˜0.12 μl fluorospheres was pressure injected (25 psi, 10 ms duration) from capillary pipettes (Drummond Scientific) with a Picospritzer (Parker-Hannifin). After injection, the pipette was held in the brain for 2 min before slowly withdrawing. The scalp of the mouse was closed with cyanoacrylate adhesive. Mice were injected with the non-steroidal anti-inflammatory drug carprofen at 5 mg/kg (Henry Schein Animal Health) for 24 hours prior to and 48 hours after surgery. Mice were monitored for signs of postoperative stress and pain.
Slice electrophysiology. Slice electrophysiology experiments were performed in mice at least 2 days after fluorospheres injections. Following anesthesia with isoflurane, mice were immediately decapitated. Brains were rapidly removed and coronal slices (300 μm) containing the auditory cortex were prepared in a cutting solution at 1° C. using a Vibratome (VT1200 S; Leica). For evoked EPSC recordings, the cutting solution, pH 7.4, ˜300 mOsm, contained the following (in mM): 2.5 KCl, 1.25 NaH2PO4, 25 NaHCO3, 0.5 CaCl2, 7 MgCl2, 7 Glucose, 205 sucrose, 1.3 ascorbic acid, and 3 sodium pyruvate (bubbled with 95% O2/5% CO2). For evaluation of corticocollicular neuron electrical properties, the cutting solution, pH ˜7.4, contained the following (in mM): 135 NMDG, 1 KCl, 1.2 KH2PO4, 1.5 MgCl2, 1.5 CaCl2, 20 NaHCO3, 10 D-Glucose. The slices were then transferred and incubated at 34° C. for 30 min (bubbled with 95% O2/5% CO2) prior to recording. The incubating and recording solution contained the following (in mM): 125 NaCl, 2.5 KCl, 1.25 NaH2PO4, 25 NaHCO3, 2 CaCl2, 1 MgCl2, 10 D-Glucose, 1.3 ascorbic acid, and 3 sodium pyruvate (bubbled with 95% O2/5% CO2). Slices were stored at room temperature until the time of recording. The flow rate of the ACSF was ˜1.5 ml/min, and its temperature was maintained at 34° C. using an in-line heating system (Warner). Both slice electrophysiology experiments were carried out using MultiClamp-700B amplifier equipped with Digidata-1440A A/D converter and Clampex (Molecular Devices). Data were sampled at 10 kHz and Bessel filtered at 4 kHz. Pipette capacitance was compensated and series resistance for recordings was lower than 15 MΩ and measured throughout the experiments. Recordings were excluded from further analysis if the series resistance changed by more than 15% compared to the baseline period.
All data for intrinsic properties were acquired and analyzed within the Ephus software package. Series resistance was determined in voltage-clamp mode (command potential set at −70 mV) by giving a −5 mV voltage step. […] The difference between baseline and steady-state hyperpolarized current (ΔI) was used to calculate Rinput using the following formula: Rinput=−5 mV/ΔI−Rseries. The average resting membrane potential (Vm) was calculated by holding the neuron in voltage-follower mode (current clamp, at I=0) ˜2 minutes after breaking in and averaging the membrane potential over the next 30 sec. Subthreshold and suprathreshold membrane responses in current clamp were elicited by injecting −200 to +400 pA in 50 pA increments (baseline Vm was maintained at −70 mV, by injecting the required current, if necessary). Sag was measured during the −200 pA current injection, using the formula, SAG=(Vmin−Vsteady-state)/Vsteady-state. The first resulting action potential (AP) at rheobase was analyzed for AP width. AP width was calculated as the full-width at the half-maximum amplitude of the AP. […]

[2] = system: rat primary culture cortical neurons; experiment: TBOA excitotoxicity assay (LDH release) in cortical neuron cultures; format: cell-based
Description: All animal protocols described here and below were approved by the Institutional Animal Care and Use Committee of the University of Pittsburgh School of Medicine. Cortical neurons were prepared from embryonic day 16-17 rats of either sex. Pregnant donor rats (Charles River Laboratories) were killed by gradual CO2 inhalation, an American Veterinary Medical Association approved protocol (Leary et al., 2013). Cortices were dissociated with trypsin, and plated at 670,000 cells per well on poly-L-ornithine glass coverslips in six-well plates. Non-neuronal cell proliferation was inhibited with 1-2 μM cytosine arabinoside at 15 days in vitro (DIV). All cortical culture experiments shown here were performed on 18-25 DIV cultures.
DL-threo-β-benzyloxaspartate (TBOA; Tocris Bioscience) excitotoxicity assays were performed on cortical culture coverslips transferred into 24-well plates containing 10 mM HEPES, 0.01% bovine serum albumin (BSA)-supplemented MEM without phenol red (MHB). […] Following this exposure, external medium was collected for LDH colorimetric measurements using a toxicity kit (Sigma-Aldrich), as previously described 12. Each experiment contained three replicates of four conditions (with/without TBOA, with/without treatment). Relative toxicity was quantified as the LDH ratio of TBOA-treated over vehicle control values within each experiment. […]

COc1ccc(CNC(=O)Nc2cccc(-c3nc4ccccc4s3)c2)cc1OC [cpd5, 3-[3-(1,3-benzothiazol-2-yl)phenyl]-1-[(3,4-dimethoxyphenyl)methyl]urea]
action potential threshold [1]: no significant effect | action potential width [1]: no significant effect | firing rate [1]: no significant effect | input resistance [1]: lack of significant effect | resting membrane potential [1]: lack of significant effect | sag ratio (V2/V1) [1]: lack of significant effect | TBOA toxicity (neuroprotection) ([2]; 10 μM Cpd5, pre-loading 1 hr and co-incubation, overnight TBOA 60 μM): significantly diminished TBOA toxicity | relative toxicity (LDH ratio of TBOA-treated over vehicle control) ([2]; 10 μM compound, 1 hr preincubation and coincubation, 75 μM TBOA, 24 hr, mean±SEM): 1.84±0.42
